Laboratory results reported in US9371295B2, “Compounds for use in the treatment of disorders that are ameliorated by inhibition of HDAC” (IRBM—Science Park S.p.A., priority 2012, dated 2016).
pEC50, pIC50: −log10 of the molar value.

Experiments:
[1] = system: human γ-globin promoter (EGFP reporter) in K562 cells; assay: HbF activation assay on K562 (EGFP/RFP reporter model system for screening of inducers of fetal hemoglobin); assay type: cell-based; conditions: 60 hours
Text: In order to test several compounds, a model system was produced based on previous findings present in the literature. The K562 erythroid-like cell lines, isolated and characterized by Lozzio & Lozzio (Blood, 45(3), pp 321-334) from a patient with chronic myelogenous leukemia in blast crisis, have been extensively employed as a useful in vitro model to study the molecular mechanism(s) regulating the expression of embryonic and fetal human globin genes, as well as for screening of new differentiation-inducing compounds. A stable cell line where reporter genes encoding green EGFP and far-red fluorescent protein red-FP are placed under the control of the human γ-globin or β-globin promoters respectively was used (see Vadolas et al, Hum. Mol. Genet. 2004, 13, 2, 223-233 for details). The modified 3-cluster also contains the upstream regulatory region called LCR. This cell line grows in suspension at 37° C. and 5% CO2 in humidified atmosphere in the following medium: DMEM, 10% foetal bovine serum, glutamine and antibiotics (penicillin and streptomycin);
The assay procedures is as follows: • Single concentration compounds or serially diluted samples are transferred to an empty assay plates by a spotter (ATS-100, EDC Biosystems, USA) in order to have a final concentration of DMSO of 0.25% in 50 μL of cell culture. Source plats contains compounds dissolved in 100% DMSO • Black, transparent bottom, 384 wells, tissue culture treated plates are used as assay plates. • Assay plates containing spotted compounds are filled with a suspension of cell in the described assay medium. The final cell concentration is of 1000 cells per well. • Cells are incubated in humidified atmosphere, 37° C.-5% CO2, for 60 hours • Cell nuclei are stained by adding 10 ul (6 μM; 1 μM final) Hoechst 33342 (Life Technologies, USA) • The cell associated intensity is read by a plate based cytometer (ACUMEN explorer, TTP Labtech, UK) • The nuclei count is used to assess the cell proliferation/death and to normalize the total EGFP/RFP intensity. HbF Activation Assay in Human Cell Line K562
The compounds of the invention were tested in the HbF activation assay on K562, as model system for screening of potential inducers of fetal hemoglobin.

[2] = target: T1, HDAC1 (Homo sapiens, UniProt Q13547); assay: HDAC1 assay (Fluor-de-Lys fluorescent deacetylase assay); assay type: biochemical; conditions: read-out: hHDAC IC50
T1 construct: made in house
Method: The HDAC1 assay is used to quantify the histone deacetylase (HDAC) activity. The assay is performed in 384 well microtiter plates by pre-incubating serial dilutions of the compounds with a fixed concentration of HeLa nuclear extract or purified HDAC1 and then adding an acetylated lysine-containing substrate/developer that fluoresces upon deacetylation.
Reagents of the HDAC Fluorescent Activity Assay are purchased from BioMol Research Laboratories (Plymouth Meeting, Pa.) and feature the Fluor-de-Lys™ Substrate/Developer System.
TSA Stock: TSA is provided as a 10 mM stock solution in 100% dimethylsulfoxide (DMSO). […] The final concentration in the assay is 20 uM.
3 uM [final] TSA to this solution increases its ability to stop the reaction.
HDAC1 Working Solution: The HDAC1 enzyme is diluted in assay buffer prior to each use from a fresh aliquot of enzyme. The final concentration in the assay is 1-2 nM.
Compounds: Test compounds are directly transferred from a 100% DMSO solution into assay plates by spotting nanoliters of solutions by an acoustic dispenser (ATS-100, EDC biosystems, US).
HeLa cells transiently transfected with pCDNA3-HDAC1-FLAG are grown to 80% confluence on 10 cm culture dishes in DMEM, 10% Fetal bovine serum supplemented with antibiotics and glutamine. Cells are washed with 10 ml cold PBS and scraped into 2 ml of PBS. Cells are centrifuged for 5 minutes at 800×g at 4° C., washed with 30 ml PBS and resuspended in 10 ml PBS, counted, re-centrifuged and frozen at −80° C.
The frozen cell pellet is re-suspended in 1 ml of hypotonic lysis buffer (LB: 20 mM Hepes pH7.9, 0.25 mM EDTA, 10% glycerol) containing COMPLETE protease inhibitor and incubated on ice for 15 minutes, followed by homogenization on a 2-ml DounceB homogenizer (25 strokes). 150 mM KCl and 0.5% NP-40 are added to the homogenate and the solution is sonicated twice for 30 seconds (output5/6, duty cycle 90) and incubated for 1 hour at 4° C. After a 30 minutes centrifugation at 12000 rpm and 4° C. the supernatant (soluble extract) is collected and protein concentration is determined using the BIORAD assay.
Anti-FLAG M2 affinity resin (Sigma) is washed three times with TBS and twice with LB. 10 μl of the LB-washed resin/mg of protein (2-3 ug of Flagged-HDAC1) are added to the soluble extract (1 mL) and incubated overnight at 4° C. with gentle mixing. The resin is then collected by centrifugation, washed once with LB, twice with LB+0.1% NP40 and twice with elution buffer (50 mM Hepes pH 7.4, 5% glycerol, 100 mM KCl, 0.01% Triton X-100).
The concentration of purified HDAC is determined by Western blot analysis.

[3] = system: HDAC in Hela cells; assay: HDAC Hela Cell Based assay

T1 sequence (Q13547 whole entry): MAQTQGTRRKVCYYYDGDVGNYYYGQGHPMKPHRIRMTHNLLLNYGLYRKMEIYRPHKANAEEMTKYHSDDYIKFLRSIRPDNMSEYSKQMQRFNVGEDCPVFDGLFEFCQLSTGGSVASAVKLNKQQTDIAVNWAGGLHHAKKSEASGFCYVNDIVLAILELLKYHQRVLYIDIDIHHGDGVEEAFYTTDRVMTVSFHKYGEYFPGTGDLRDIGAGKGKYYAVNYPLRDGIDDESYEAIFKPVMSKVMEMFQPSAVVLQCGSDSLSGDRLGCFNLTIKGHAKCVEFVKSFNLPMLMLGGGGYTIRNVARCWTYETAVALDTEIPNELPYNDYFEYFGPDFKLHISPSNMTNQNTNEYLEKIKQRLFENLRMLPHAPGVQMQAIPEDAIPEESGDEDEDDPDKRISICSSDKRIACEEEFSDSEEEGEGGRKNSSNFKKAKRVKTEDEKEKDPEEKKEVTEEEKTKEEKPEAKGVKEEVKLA

Structure (SMILES)	pEC50 [1]	pIC50 [2]	pIC50 [3]
CCC(=O)CCCCC[C@H](NC(=O)c1cc(CN2CCCCC2)ns1)c1ncc(-c2cc3ccccc3nc2OC)o1 [Compound 94, (S)-N-(1-(5-(2-methoxyquinolin-3-yl)oxazol-2-yl)-7-oxononyl)-3-(piperidin-1-ylmethyl)isothiazole-5-carboxamide]	< 6.00	> 7.00	6.00 to 7.00
CCC(=O)CCCCC[C@H](NC(=O)C1CN(C)C1)c1nnc(-c2cc3ccccc3n(C)c2=O)o1 [Compound 71, (S)-1-methyl-N-(1-(5-(1-methyl-2-oxo-1,2-dihydroquinolin-3-yl)-1,3,4-oxadiazol-2-yl)-7-oxononyl)azetidine-3-carboxamide]	< 6.00	> 7.00	6.00 to 7.00
CCC(=O)CCCCC[C@H](NC(=O)Cc1nccs1)c1ncc(-c2cc3ccccc3nc2OC)o1 [Compound 76, (S)-N-(1-(5-(2-methoxyquinolin-3-yl)oxazol-2-yl)-7-oxononyl)-2-(thiazol-2-yl)acetamide]	< 6.00	> 7.00	6.00 to 7.00
CCC(=O)CCCCC[C@H](NC(=O)CN1CCN(C)CC1)c1ncc(-c2ccccc2)o1 [Compound 15, (S)-2-(4-methylpiperazin-1-yl)-N-(7-oxo-1-(5-phenyloxazol-2-yl)nonyl)acetamide]	< 6.00	6.00 to 7.00	< 6.00
CCC(=O)CCCCC[C@H](NC(=O)C(=O)N1CCN(C)CC1)c1nnc(-c2cc3ccccc3nc2OC)o1 [Compound 46, (S)-N-(1-(5-(2-methoxyquinolin-3-yl)-1,3,4-oxadiazol-2-yl)-7-oxononyl)-2-(4-methylpiperazin-1-yl)-2-oxoacetamide]	< 6.00	> 7.00	6.00 to 7.00
CCC(=O)CCCCC[C@H](NC(=O)C1CN(Cc2ccccc2)C1)c1ncc(-c2cc3ccccc3nc2OC)o1 [Compound 56, (S)-1-benzyl-N-(1-(5-(2-methoxyquinolin-3-yl)oxazol-2-yl)-7-oxononyl)azetidine-3-carboxamide]	< 6.00	> 7.00	6.00 to 7.00
CCC(=O)CCCCC[C@H](NC(=O)C1(F)CCN(C)CC1)c1ncc(-c2cc3ccccc3nc2OC)o1 [Compound 68, (S)-4-fluoro-N-(1-(5-(2-methoxyquinolin-3-yl)oxazol-2-yl)-7-oxononyl)-1-methylpiperidine-4-carboxamide]	< 6.00	> 7.00	6.00 to 7.00
CCC(=O)CCCCC[C@H](NC(=O)Cn1cncn1)c1ncc(-c2cc3ccccc3nc2OC)o1 [Compound 86, (S)-N-(1-(5-(2-methoxyquinolin-3-yl)oxazol-2-yl)-7-oxononyl)-2-(1H-1,2,4-triazol-1-yl)acetamide]	< 6.00	> 7.00	6.00 to 7.00
CCC(=O)CCCCC[C@H](NC(=O)C(C)(C)N(C)C)c1ncc(-c2ccccc2)o1 [Compound 9, (S)-2-(dimethylamino)-2-methyl-N-(7-oxo-1-(5-phenyloxazol-2-yl)nonyl)propanamide]	< 6.00	> 7.00	< 6.00
CCC(=O)CCCCC[C@H](NC(=O)C1CN(C(C)=O)C1)c1ncc(-c2ccc(-n3cccn3)cc2)o1 [Compound 62, (S)-N-(1-(5-(4-(1H-pyrazol-1-yl)phenyl)oxazol-2-yl)-7-oxononyl)-1-acetylazetidine-3-carboxamide]	< 6.00	> 7.00	6.00 to 7.00
CCC(=O)CCCCC[C@H](NC(=O)c1cncs1)c1nnc(-c2cc3ccccc3nc2OC)o1 [Compound 49, (S)-N-(1-(5-(2-methoxyquinolin-3-yl)-1,3,4-oxadiazol-2-yl)-7-oxononyl)thiazole-5-carboxamide]	< 6.00	–	6.00 to 7.00
CCC(=O)CCCCC[C@H](NC(=O)CCN(C)C)c1ncc(-c2ccccc2)o1 [Compound 7, (S)-3-(dimethylamino)-N-(7-oxo-1-(5-phenyloxazol-2-yl)nonyl)propanamide]	< 6.00	> 7.00	< 6.00
CCC(=O)CCCCC[C@H](NC(=O)Cn1cnc2ccccc21)c1ncc(-c2cc3ccccc3nc2OC)o1 [Compound 97, (S)-2-(1H-benzo[d]imidazol-1-yl)-N-(1-(5-(2-methoxyquinolin-3-yl)oxazol-2-yl)-7-oxononyl)acetamide]	< 6.00	> 7.00	6.00 to 7.00
CCC(=O)CCCCC[C@H](NC(=O)[C@@H]1C[C@H](F)CN1C)c1ncc(-c2cc3ccccc3nc2OC)o1 [Compound 66, (2S,4S)-4-fluoro-N-((S)-1-(5-(2-methoxyquinolin-3-yl)oxazol-2-yl)-7-oxononyl)-1-methylpyrrolidine-2-carboxamide]	< 6.00	> 7.00	6.00 to 7.00

The next lines start with the values.

pEC50 [1]	pIC50 [2]	pIC50 [3]	Structure (SMILES)
< 6.00	6.00 to 7.00	< 6.00	CCC(=O)CCCCC[C@H](NC(=O)C1CCCCCN1C)c1ncc(-c2ccccc2)o1 (stereo partly drawn) [Compound 21, 1-methyl-N-((S)-7-oxo-1-(5-phenyloxazol-2-yl)nonyl)azepane-2-carboxamide]
< 6.00	> 7.00	6.00 to 7.00	CCC(=O)CCCCC[C@H](NC(=O)C(C)n1nc(C)cc1C)c1ncc(-c2cc3ccccc3nc2OC)o1 (stereo partly drawn) [Compound 95, 2-(3,5-dimethyl-1H-pyrazol-1-yl)-N-((S)-1-(5-(2-methoxyquinolin-3-yl)oxazol-2-yl)-7-oxononyl)propanamide]
< 6.00	> 7.00	6.00 to 7.00	CCC(=O)CCCCC[C@H](NC(=O)C1CNC1)c1ncc(-c2cc3ccccc3nc2OC)o1 [Compound 57, (S)-N-(1-(5-(2-methoxyquinolin-3-yl)oxazol-2-yl)-7-oxononyl)azetidine-3-carboxamide]
< 6.00	> 7.00	< 6.00	CCC(=O)CCCCC[C@H](NC(=O)[C@@H](CC(F)(F)F)N(C)C)c1ncc(-c2cc3ccccc3nc2OC)o1 [Compound 64, (R)-2-(dimethylamino)-4,4,4-trifluoro-N-((S)-1-(5-(2-methoxyquinolin-3-yl)oxazol-2-yl)-7-oxononyl)butanamide]
< 6.00	> 7.00	6.00 to 7.00	CCC(=O)CCCCC[C@H](NC(=O)C(=O)N(C)C)c1nnc(-c2cc3ccccc3nc2OC)o1 [Compound 45, (S)-N1-(1-(5-(2-methoxyquinolin-3-yl)-1,3,4-oxadiazol-2-yl)-7-oxononyl)-N2,N2-dimethyloxalamide]
6.00 to 7.00	> 7.00	6.00 to 7.00	CCC(=O)CCCCC[C@H](NC(=O)c1ccns1)c1ncc(-c2cc3ccccc3nc2OC)o1 [Compound 100, (S)-N-(1-(5-(2-methoxyquinolin-3-yl)oxazol-2-yl)-7-oxononyl)isothiazole-5-carboxamide]
6.00 to 7.00	> 7.00	> 7.00	CCC(=O)CCCCC[C@H](NC(=O)C1CCN(C)CC1)c1ncc(-c2cc3ccccc3nc2OC)o1 [Compound 39]
